Assay results reported in the NIST ThermoML archive (doi:10.1021/je020131a).

Test: xn = mol fraction of the nth substance listed
Settings: 101.3 kPa, Liquid, Falling or rolling sphere viscometry

C1CCCCC1 [cyclohexane] + COC(=O)OC
x2 = 0
Settings | viscosity [mPa·s]
293.15 K | 0.976
298.15 K | 0.894
303.15 K | 0.813
313.15 K | 0.697

CCOC(=O)OCC [diethyl carbonate] + C1CCCCC1
Settings | viscosity [mPa·s]
293.15 K, x1 = 0.0501 | 0.906
293.15 K, x1 = 0.0992 | 0.85
293.15 K, x1 = 0.1969 | 0.78
293.15 K, x1 = 0.2923 | 0.741
293.15 K, x1 = 0.4023 | 0.72
293.15 K, x1 = 0.502 | 0.712
293.15 K, x1 = 0.5984 | 0.718
293.15 K, x1 = 0.6977 | 0.728
293.15 K, x1 = 0.808 | 0.742
293.15 K, x1 = 0.9037 | 0.761
293.15 K, x1 = 0.9511 | 0.776
293.15 K, x1 = 1 | 0.795
298.15 K, x1 = 0.0531 | 0.832
298.15 K, x1 = 0.094 | 0.792
298.15 K, x1 = 0.1931 | 0.725
298.15 K, x1 = 0.2865 | 0.691
298.15 K, x1 = 0.3821 | 0.676
298.15 K, x1 = 0.4802 | 0.674
298.15 K, x1 = 0.6454 | 0.685
298.15 K, x1 = 0.6801 | 0.689
298.15 K, x1 = 0.7828 | 0.701
298.15 K, x1 = 0.8852 | 0.719
298.15 K, x1 = 0.9177 | 0.726
298.15 K, x1 = 1 | 0.749
303.15 K, x1 = 0.0497 | 0.76
303.15 K, x1 = 0.1018 | 0.717
303.15 K, x1 = 0.1958 | 0.665
303.15 K, x1 = 0.293 | 0.637
303.15 K, x1 = 0.3922 | 0.628
303.15 K, x1 = 0.4767 | 0.626
303.15 K, x1 = 0.5943 | 0.635
303.15 K, x1 = 0.6778 | 0.643
303.15 K, x1 = 0.7897 | 0.657
303.15 K, x1 = 0.8649 | 0.671
303.15 K, x1 = 0.94 | 0.684
303.15 K, x1 = 1 | 0.699
313.15 K, x1 = 0.0511 | 0.659
313.15 K, x1 = 0.0983 | 0.632
313.15 K, x1 = 0.2003 | 0.594
313.15 K, x1 = 0.3002 | 0.572
313.15 K, x1 = 0.3963 | 0.56
313.15 K, x1 = 0.4953 | 0.563
313.15 K, x1 = 0.5914 | 0.568
313.15 K, x1 = 0.7001 | 0.576
313.15 K, x1 = 0.8098 | 0.589
313.15 K, x1 = 0.9014 | 0.603
313.15 K, x1 = 0.9494 | 0.613
313.15 K, x1 = 1 | 0.623

COC(=O)OC [dimethyl carbonate] + CCCCCC
Settings | viscosity [mPa·s]
293.15 K, x1 = 0.0722 | 0.312
293.15 K, x1 = 0.1448 | 0.315
293.15 K, x1 = 0.2286 | 0.325
293.15 K, x1 = 0.3026 | 0.338
293.15 K, x1 = 0.4102 | 0.359
293.15 K, x1 = 0.5062 | 0.384
293.15 K, x1 = 0.6026 | 0.412
293.15 K, x1 = 0.7052 | 0.451
293.15 K, x1 = 0.7974 | 0.494
293.15 K, x1 = 0.901 | 0.552
293.15 K, x1 = 0.9506 | 0.585
293.15 K, x1 = 1 | 0.626
298.15 K, x1 = 0.082 | 0.306
298.15 K, x1 = 0.1269 | 0.311
298.15 K, x1 = 0.2131 | 0.322
298.15 K, x1 = 0.3197 | 0.336
298.15 K, x1 = 0.3787 | 0.345
298.15 K, x1 = 0.4712 | 0.362
298.15 K, x1 = 0.5121 | 0.37
298.15 K, x1 = 0.6067 | 0.392
298.15 K, x1 = 0.6987 | 0.423
298.15 K, x1 = 0.842 | 0.487
298.15 K, x1 = 0.9248 | 0.53
298.15 K, x1 = 0.9615 | 0.555
298.15 K, x1 = 1 | 0.585
303.15 K, x1 = 0.0468 | 0.287
303.15 K, x1 = 0.0991 | 0.293
303.15 K, x1 = 0.1951 | 0.305
303.15 K, x1 = 0.295 | 0.314
303.15 K, x1 = 0.3832 | 0.327
303.15 K, x1 = 0.4865 | 0.342
303.15 K, x1 = 0.5899 | 0.363
303.15 K, x1 = 0.696 | 0.394
303.15 K, x1 = 0.7947 | 0.433
303.15 K, x1 = 0.8939 | 0.478
303.15 K, x1 = 0.9436 | 0.507
303.15 K, x1 = 1 | 0.536
313.15 K, x1 = 0.0495 | 0.267
313.15 K, x1 = 0.1 | 0.274
313.15 K, x1 = 0.2092 | 0.286
313.15 K, x1 = 0.3093 | 0.296
313.15 K, x1 = 0.4043 | 0.306
313.15 K, x1 = 0.4941 | 0.321
313.15 K, x1 = 0.6052 | 0.347
313.15 K, x1 = 0.7063 | 0.379
313.15 K, x1 = 0.8046 | 0.416
313.15 K, x1 = 0.9014 | 0.458
313.15 K, x1 = 0.9497 | 0.477
313.15 K, x1 = 1 | 0.494
